Data as given in ChEMBL document CHEMBL4482310, “Inhibitors of grb2-associated binding protein 1 (gab1) and methods of treating cancer using the same” (2017).

Columns and labels:
[1] = biological target: T1, GRB2-associated-binding protein 1 (Homo sapiens, UniProt Q13480); test: Binding affinity to recombinant human GAB1 PH domain expressed in Escherichia coli BL21 (DE3) by surface plasmon resonance assay
T1 sequence (Q13480 whole entry): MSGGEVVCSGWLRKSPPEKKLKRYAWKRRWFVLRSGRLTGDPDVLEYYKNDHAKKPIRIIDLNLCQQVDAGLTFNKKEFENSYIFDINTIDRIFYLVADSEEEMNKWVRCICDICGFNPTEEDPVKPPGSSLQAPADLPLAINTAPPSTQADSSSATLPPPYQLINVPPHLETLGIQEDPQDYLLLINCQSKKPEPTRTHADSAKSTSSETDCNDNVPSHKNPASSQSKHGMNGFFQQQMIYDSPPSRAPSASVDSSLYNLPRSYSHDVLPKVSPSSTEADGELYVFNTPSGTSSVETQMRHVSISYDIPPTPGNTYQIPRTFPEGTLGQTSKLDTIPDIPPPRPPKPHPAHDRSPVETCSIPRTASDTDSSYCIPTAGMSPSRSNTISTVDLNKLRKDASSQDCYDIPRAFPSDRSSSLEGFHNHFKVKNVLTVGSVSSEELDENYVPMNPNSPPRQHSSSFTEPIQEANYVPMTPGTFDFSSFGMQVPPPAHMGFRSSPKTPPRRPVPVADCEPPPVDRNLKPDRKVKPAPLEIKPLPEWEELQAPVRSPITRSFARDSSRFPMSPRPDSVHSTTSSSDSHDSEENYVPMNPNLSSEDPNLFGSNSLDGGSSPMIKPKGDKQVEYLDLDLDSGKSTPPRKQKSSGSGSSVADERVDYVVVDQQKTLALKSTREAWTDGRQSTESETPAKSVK

[2] = biological target: T2, Insulin receptor substrate 1 (Homo sapiens, UniProt P35568); test: Binding affinity to recombinant human IRS1 PH domain expressed in Escherichia coli BL21 (DE3) by surface plasmon resonance assay
T2 sequence (P35568 whole entry): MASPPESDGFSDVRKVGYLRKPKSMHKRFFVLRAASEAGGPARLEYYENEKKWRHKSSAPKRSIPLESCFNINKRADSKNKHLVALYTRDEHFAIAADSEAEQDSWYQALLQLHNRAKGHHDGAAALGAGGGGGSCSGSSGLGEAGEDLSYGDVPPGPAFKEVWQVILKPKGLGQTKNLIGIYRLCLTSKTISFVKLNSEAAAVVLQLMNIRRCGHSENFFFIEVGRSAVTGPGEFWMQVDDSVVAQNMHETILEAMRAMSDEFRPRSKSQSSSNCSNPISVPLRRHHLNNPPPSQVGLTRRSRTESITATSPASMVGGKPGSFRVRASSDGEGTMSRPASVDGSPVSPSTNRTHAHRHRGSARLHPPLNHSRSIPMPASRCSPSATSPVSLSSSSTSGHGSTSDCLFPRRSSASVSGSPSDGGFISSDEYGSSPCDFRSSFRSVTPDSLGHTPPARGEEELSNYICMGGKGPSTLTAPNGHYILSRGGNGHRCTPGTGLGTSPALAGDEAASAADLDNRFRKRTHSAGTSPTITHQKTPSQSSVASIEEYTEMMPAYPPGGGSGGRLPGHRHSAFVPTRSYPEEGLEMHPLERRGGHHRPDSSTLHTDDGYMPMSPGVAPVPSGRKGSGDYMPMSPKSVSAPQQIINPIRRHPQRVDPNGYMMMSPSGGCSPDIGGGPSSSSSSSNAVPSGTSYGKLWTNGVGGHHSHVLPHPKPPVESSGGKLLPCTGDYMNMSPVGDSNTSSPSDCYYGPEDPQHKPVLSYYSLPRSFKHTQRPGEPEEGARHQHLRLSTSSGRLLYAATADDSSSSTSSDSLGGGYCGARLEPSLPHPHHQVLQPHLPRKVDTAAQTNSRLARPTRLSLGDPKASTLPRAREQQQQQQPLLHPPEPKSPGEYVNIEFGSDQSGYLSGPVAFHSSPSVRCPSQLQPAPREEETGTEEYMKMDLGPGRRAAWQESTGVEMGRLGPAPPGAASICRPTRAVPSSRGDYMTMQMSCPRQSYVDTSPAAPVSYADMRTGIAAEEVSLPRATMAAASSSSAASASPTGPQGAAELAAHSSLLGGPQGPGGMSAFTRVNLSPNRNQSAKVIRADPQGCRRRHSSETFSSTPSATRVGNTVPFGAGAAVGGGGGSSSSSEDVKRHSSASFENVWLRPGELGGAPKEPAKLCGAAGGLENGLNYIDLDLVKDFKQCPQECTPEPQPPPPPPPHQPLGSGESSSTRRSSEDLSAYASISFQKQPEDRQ

[3] = biological target: T3, Insulin receptor substrate 1 (Homo sapiens) (UniProt P35568); test: Inhibition of HGF-induced IRS1 phosphorylation in human T47D cells assessed as pSer312 IRS1/total-IRS1 ratio level at 20 uM pre-incubated for 4 hrs before stimulation with HGF for 20 mins (reference value: 100 +/- 0.02%); assay type: cell-based; design: scale not given: the % may be the effect or the level left
T3 sequence (whole entry): T2 sequence (P35568 whole entry)

[4] = biological target: T4, GRB2-associated-binding protein 1 (Homo sapiens) (UniProt Q13480); test: Inhibition of HGF-stimulated GAB1 Y627 phosphorylation in human T47D cells at 20 uM pre-incubated for 4 hrs before stimulation with HGF for 20 mins; assay type: cell-based
T4 sequence (whole entry): T1 sequence (Q13480 whole entry)

MCF-10A [5] = test: Cytotoxicity in human MCF10A cells assessed as reduction in cell viability incubated for 4 days by MTT assay; assay type: cell-based; conditions: 96 h
MDA-MB-231 = test: Cytotoxicity in human MDA-MB-231 cells assessed as reduction in cell viability incubated for 4 days by MTT assay; assay type: functional, cell-based
T47D = test: Cytotoxicity in human T47D cells assessed as reduction in cell viability incubated for 4 days by MTT assay; assay type: functional, cell-based
MCF-10A [6] = test: Cytotoxicity in human MCF10A cells assessed as reduction in cell viability at 100 uM incubated for 4 days by MTT assay; assay type: cell-based; conditions: 96 h

Row | SMILES | Kd [1] | Kd [2] | Activity [3] [%] | Kd ([2]; read-out: Kd) [nM] | further results
1 | Cc1noc(C)c1NC(=O)NCc1csc(-c2cccs2)n1 | Not Active | Not Active | 100 |  | 
2 | CCCCCCCCCCCCCCCCCCOC[C@H](COP(=O)(O)O[C@H]1[C@H](O)[C@@H](O)[C@H](O)C[C@H]1O)OC |  |  | 116 |  | inhibition [4]: 72%
3 | CS(=O)(=O)CCSc1ncccc1C(=O)Sc1ccc(Cl)cc1Cl |  |  | 79.7 | 1600 | Kd ([1]; read-out: Kd): 42300 nM; Activity (MCF-10A [5]): Non-Toxic
4 | CS(=O)(=NS(=O)(=O)c1ccc(-c2ccccn2)s1)c1ccc(Cl)cc1 (stereo unspecified) | Not Active | Not Active | 102 |  | IC50 (MDA-MB-231): Not Active; IC50 (T47D): Not Active
5 | CCCCCCCCCCCCc1ccc(S(=O)(=O)Nc2nncs2)cc1 |  |  | 61.3 |  | Kd ([1]; read-out: Kd): 1330 nM
6 | O=S(=O)(NCc1csc2ccc(Cl)cc12)c1cc(S(=O)(=O)c2ccccc2)cs1 |  | Not Active | 46.5 |  | Activity (MCF-10A [5]): Non-Toxic
7 | Cn1cnc(S(=O)(=O)Nc2ccccc2SCCS(=O)(=O)c2ccc(Cl)cc2)c1 |  |  | 83.2 | 16400 | Kd ([1]; read-out: Kd): 2100 nM
8 | Cc1onc(-c2ccccc2)c1-c1nc(CSc2nc3ccccc3[nH]2)no1 | Not Active |  | 31.1 | 120 | 
9 | O=c1[nH]nc(SCc2csc(-c3ccccc3)n2)n1Cc1ccco1 |  | Not Active | 40.7 |  | Kd ([1]; read-out: Kd): 2200 nM; Activity (MCF-10A [5]): Non-Toxic
10 | CCc1ccc(C(=O)OC)cc1CSc1nnc(-c2ccc(C(F)(F)F)cc2)n1Cc1ccoc1 |  |  | 64.4 |  | 
11 | O=C(O)c1ccccc1C(=O)Nc1ccccc1SCCS(=O)(=O)c1ccc(Cl)cc1 | Not Active | Not Active | 75.6 |  | IC50 (MDA-MB-231): Not Active; Activity (MCF-10A [6]): Non-Toxic
12 | CCCCCCCCCCCCc1ccc(S(=O)(=O)Nc2nnc(C(=O)OCC)s2)cc1 |  |  | 78.4 | 50 | Kd ([1]; read-out: Kd): 680 nM; inhibition [4]: 82%; Activity (MCF-10A [5]): Non-Toxic
13 | Cc1cc2ncc(-c3cnc(SCCS(=O)(=O)c4ccc(Cl)cc4)nc3)c(C)n2n1 | Not Active | Not Active | 98.2 |  | 
14 | CCCCCCCCCCCCc1ccc(S(=O)(=O)Nc2nnc(S(N)(=O)=O)s2)cc1 |  | Not Active | 115 |  | 
15 | Cn1c(Cc2ccsc2)nnc1SCC(=O)Nc1cc(Cl)cc(Cl)c1 | Not Active | Not Active | 84.8 |  | IC50 (MDA-MB-231): Not Active; IC50 (T47D): Not Active
16 | Cc1nnc(NS(=O)(=O)c2ccc(NS(=O)(=O)c3ccc4ccccc4c3)cc2)s1 | Not Active | Not Active | 89.9 |  | 
17 | Cc1nc(-c2ccc(S(=O)(=O)N3CCN(C4c5ccccc5-c5ccccc54)CC3)s2)cs1 |  |  | 98.7 |  | 
18 | CCCCCCCCCCCCc1ccc(S(=O)(=O)Nc2nnc(CC(=O)OCC)s2)cc1 |  |  | 60.6 | 150 | Kd ([1]; read-out: Kd): 900 nM; inhibition [4]: 96%; Activity (MCF-10A [5]): Non-Toxic
19 | O=S(=O)(NCc1csc(-c2cccs2)n1)c1ccc(N2CCOCC2)nc1 | Not Active |  | 101 | 16200 | IC50 (MDA-MB-231): Not Active
20 | COc1cc(NS(=O)(=O)c2ccc(NS(=O)(=O)c3c(C)noc3C)cc2)nc(OC)n1 | Not Active | Not Active | 91.7 |  | IC50 (MDA-MB-231): Not Active; IC50 (T47D): Not Active; Activity (MCF-10A [6]): Non-Toxic
21 | CCCCCCCCCCCCc1ccc(S(=O)(=O)Nc2nnc(CC(=O)O)s2)cc1 |  |  | 69 | 50 | 
